Measurements from ChEMBL document CHEMBL1201862, “PubChem BioAssay data set” (2004).
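96-well plates; 48 h exposure; 5 concentrations. Endpoints by linear interpolation between flanking doses. Not reached: highest tested concentration assigned. The concentration for 50% growth inhibition is given as GI50.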 Calls of active or inactive are those of the source. No stated cut-off is given here; in the data, active = GI50 up to about 1.1 µM and inactive = higher.

How the values were obtained:
Assay in all cases: NCI-60 cell line screen, 48 h
LOX IMVI = tested on: LOX IMVI
HOP-62 = tested on: HOP-62
IGROV-1 = tested on: IGROV-1
DU-145 = tested on: DU-145
NCI/ADR-RES = tested on: NCI/ADR-RES
MDA-N = tested on: MDA-N
TK-10 = tested on: TK-10
NCI-H226 = tested on: NCI-H226
BT-549 = tested on: BT-549
SF-295 = tested on: SF-295
EKVX = tested on: EKVX
SK-OV-3 = tested on: SK-OV-3
HCT-116 = tested on: HCT-116
CAKI-1 = tested on: CAKI-1
A549 = tested on: A549
HCC 2998 = tested on: HCC 2998
UO-31 = tested on: UO-31
786-0 = tested on: 786-0
COLO 205 = tested on: COLO 205
M14 = tested on: M14
UACC-62 = tested on: UACC-62
MDA-MB-231 = tested on: MDA-MB-231
ACHN = tested on: ACHN
SNB-19 = tested on: SNB-19
OVCAR-5 = tested on: OVCAR-5
NCI-H522 = tested on: NCI-H522
KM12 = tested on: KM12
PC-3 = tested on: PC-3
SK-MEL-5 = tested on: SK-MEL-5
HCT-15 = tested on: HCT-15
NCI-H460 = tested on: NCI-H460
UACC-257 = tested on: UACC-257
NCI-H23 = tested on: NCI-H23
MCF7 = tested on: MCF7
Malme-3M = tested on: Malme-3M
SF-268 = tested on: SF-268
OVCAR-3 = tested on: OVCAR-3
SF-539 = tested on: SF-539
RXF 393 = tested on: RXF 393
A498 = tested on: A498
MOLT-4 = tested on: MOLT-4
HL-60 = tested on: HL-60
MDA-MB-435 = tested on: MDA-MB-435
K562 = tested on: K562
U-251 = tested on: U-251
HOP-92 = tested on: HOP-92
RPMI-8226 = tested on: RPMI-8226
T47D = tested on: T47D
OVCAR-4 = tested on: OVCAR-4
SK-MEL-28 = tested on: SK-MEL-28
SN12C = tested on: SN12C
SW-620 = tested on: SW-620
CCRF-CEM = tested on: CCRF-CEM
SR = tested on: SR
SK-MEL-2 = tested on: SK-MEL-2
SNB-75 = tested on: SNB-75
OVCAR-8 = tested on: OVCAR-8

With `C=CCn1c(-c2ccccc2)cs/c1=N\C(P(=O)(O)O)P(=O)(O)O` the GI50 (LOX IMVI) was > 100 µM (inactive), the GI50 (HOP-62) was > 100 µM (inactive) and the GI50 (IGROV-1) was > 100 µM (inactive). The GI50 (DU-145) was > 100 µM (inactive), the GI50 (NCI/ADR-RES) was > 100 µM (inactive) and the GI50 (MDA-N) was > 100 µM (inactive). For the same compound, the GI50 (TK-10) was > 100 µM (inactive), the GI50 (NCI-H226) was > 100 µM (inactive) and the GI50 (BT-549) was > 100 µM (inactive). For the same compound, the GI50 (SF-295) was > 100 µM (inactive), the GI50 (EKVX) was > 100 µM (inactive) and the GI50 (SK-OV-3) was > 100 µM (inactive). The GI50 (HCT-116) was > 100 µM (inactive), the GI50 (CAKI-1) was > 100 µM (inactive) and the GI50 (A549) was > 100 µM (inactive). The GI50 (HCC 2998) was > 100 µM (inactive), the GI50 (UO-31) was > 100 µM (inactive) and the GI50 (786-0) was > 100 µM (inactive). The GI50 (COLO 205) was > 100 µM (inactive), the GI50 (M14) was > 100 µM (inactive) and the GI50 (UACC-62) was > 100 µM (inactive). For the same compound, the GI50 (MDA-MB-231) was > 100 µM (inactive), the GI50 (ACHN) was > 100 µM (inactive) and the GI50 (SNB-19) was > 100 µM (inactive). The GI50 (OVCAR-5) was > 100 µM (inactive), the GI50 (NCI-H522) was > 100 µM (inactive) and the GI50 (KM12) was > 100 µM (inactive). The GI50 (PC-3) was > 100 µM (inactive), the GI50 (SK-MEL-5) was > 100 µM (inactive) and the GI50 (HCT-15) was over 100 µM. The GI50 (NCI-H460) was > 100 µM (inactive), the GI50 (UACC-257) was > 100 µM (inactive) and the GI50 (NCI-H23) was > 100 µM (inactive). The GI50 (MCF7) was > 100 µM (inactive), the GI50 (Malme-3M) was > 100 µM (inactive) and the GI50 (SF-268) was > 100 µM (inactive). For the same compound, the GI50 (OVCAR-3) was > 100 µM (inactive), the GI50 (SF-539) was > 100 µM (inactive) and the GI50 (RXF 393) was > 100 µM (inactive).
With `C[Si](C)(C)C1=C2C(=O)c3ccccc3C(=O)C2=C([Si](C)(C)C)[C@@H]2CCCC[C@H]12` the GI50 (LOX IMVI) was > 100 µM (inactive), the GI50 (A498) was > 100 µM (inactive) and the GI50 (IGROV-1) was > 100 µM (inactive). For the same compound, the GI50 (DU-145) was > 100 µM (inactive), the GI50 (MOLT-4) was > 100 µM (inactive) and the GI50 (MDA-N) was > 100 µM (inactive). For the same compound, the GI50 (HL-60) was > 100 µM (inactive), the GI50 (MDA-MB-435) was > 100 µM (inactive) and the GI50 (TK-10) was > 100 µM (inactive). The GI50 (K562) was > 100 µM (inactive), the GI50 (U-251) was > 100 µM (inactive) and the GI50 (HOP-92) was > 100 µM (inactive). The GI50 (BT-549) was > 100 µM (inactive), the GI50 (SF-295) was > 100 µM (inactive) and the GI50 (EKVX) was > 100 µM (inactive). For the same compound, the GI50 (RPMI-8226) was > 100 µM (inactive), the GI50 (SK-OV-3) was > 100 µM (inactive) and the GI50 (HCT-116) was > 100 µM (inactive). For the same compound, the GI50 (CAKI-1) was > 100 µM (inactive), the GI50 (T47D) was > 100 µM (inactive) and the GI50 (A549) was > 100 µM (inactive). For the same compound, the GI50 (OVCAR-4) was 95.3 µM (inactive), the GI50 (HCC 2998) was > 100 µM (inactive) and the GI50 (UO-31) was > 100 µM (inactive). The GI50 (COLO 205) was > 100 µM (inactive), the GI50 (M14) was > 100 µM (inactive) and the GI50 (UACC-62) was > 100 µM (inactive). For the same compound, the GI50 (MDA-MB-231) was > 100 µM (inactive), the GI50 (ACHN) was > 100 µM (inactive) and the GI50 (SNB-19) was > 100 µM (inactive). The GI50 (OVCAR-5) was > 100 µM (inactive), the GI50 (SK-MEL-28) was > 100 µM (inactive) and the GI50 (NCI-H522) was > 100 µM (inactive). For the same compound, the GI50 (PC-3) was > 100 µM (inactive), the GI50 (SK-MEL-5) was > 100 µM (inactive) and the GI50 (HCT-15) was over 100 µM. The GI50 (NCI-H460) was > 100 µM (inactive), the GI50 (UACC-257) was > 100 µM (inactive) and the GI50 (NCI-H23) was > 100 µM (inactive). For the same compound, the GI50 (MCF7) was > 100 µM (inactive), the GI50 (SN12C) was > 100 µM (inactive) and the GI50 (SW-620) was > 100 µM (inactive). The GI50 (Malme-3M) was > 100 µM (inactive), the GI50 (CCRF-CEM) was > 100 µM (inactive) and the GI50 (OVCAR-3) was > 100 µM (inactive). The GI50 (SF-539) was > 100 µM (inactive), the GI50 (SR) was > 100 µM (inactive) and the GI50 (RXF 393) was > 100 µM (inactive). For the same compound, the GI50 (SK-MEL-2) was > 100 µM (inactive).
For `CNc1ccc(C(=O)CC(O)CCC(C)C2OC(=O)CC(O)CC(=O)CC(O)CC(O)CC(O)CC(O)CC3(O)CC(O)C(C(=O)NCCN4CCOCC4)C(CC(OC4OC(C)C(O)C(N)C4O)\C=C/C=C\C=C/C=C/C=C/C=C\C=C/C2C)O3)cc1` (stereo not given), the GI50 (SNB-75) was > 100 µM (inactive), the GI50 (OVCAR-8) was 4.23 µM (inactive) and the GI50 (A498) was 0.321 µM (active). The GI50 (IGROV-1) was 6.34 µM (inactive), the GI50 (MOLT-4) was 2.3 µM (inactive) and the GI50 (MDA-N) was 0.701 µM (active). For the same compound, the GI50 (MDA-MB-435) was 1.56 µM (inactive), the GI50 (TK-10) was 1.52 µM (inactive) and the GI50 (NCI-H226) was 3.81 µM (inactive). The GI50 (HOP-92) was > 100 µM (inactive), the GI50 (BT-549) was 1.64 µM (inactive) and the GI50 (HCT-116) was > 100 µM (inactive). For the same compound, the GI50 (T47D) was > 100 µM (inactive), the GI50 (OVCAR-4) was 2.74 µM (inactive) and the GI50 (UO-31) was 0.404 µM (active). The GI50 (786-0) was 1.01 µM (active), the GI50 (UACC-62) was 1.68 µM (inactive) and the GI50 (SNB-19) was > 100 µM (inactive). The GI50 (NCI-H522) was 0.493 µM (active), the GI50 (KM12) was 2.84 µM (inactive) and the GI50 (UACC-257) was 0.537 µM (active). For the same compound, the GI50 (SN12C) was 0.417 µM (active), the GI50 (SW-620) was > 100 µM (inactive) and the GI50 (Malme-3M) was 0.267 µM (active). The GI50 (SF-539) was 16 µM (inactive), the GI50 (RXF 393) was > 100 µM (inactive) and the GI50 (SK-MEL-2) was 6.43 µM (inactive).
